According to patent US20100168079A1 (priority 2008, published 2010):

Target: T1, human S1P1 receptors (Homo sapiens, UniProt P21453)
T1 construct: myc (N); expressed in transfected cells; host or cells: HeLa (human cervix carcinoma, ATCC CCL2), HeLa-S1P1/Gα16 cell clone 1
Assay: Human S1P1 Receptor Calcium FLIPR Antagonist Assay (HeLa Gα16 S1P1)
Assay type: cell-based
Details: relative antagonism of Ca2+ signal evoked by probing agonist GNF-AC-1 at EC80; HeLa-S1P1/Gα16 cells
Experimental: Human S1P1 Receptor Calcium FLIPR Antagonist Assay
The cells are plated in 384 well black plates (10′000 cells per well). […] After washing, the cells are transferred to the FLIPR. The test compounds are added at different concentrations […]) in HBSS in the presence of 0.1% BSA and changes in fluorescence are recorded (indication of agonism). The probing agonist is added 20-30 minutes afterwards to the wells at a concentration giving 80% of the maximal activity (EC80). After each addition, time points are collected as follows: 20 time points (2 seconds) before the addition of the agonist (Fmin) and 60 time points (1 or 2 seconds) after the addition of the probing agonist. This allows the determination of the maximal fluorescence (Fmax). The ratio (Fmax-Fmin)/Fmin is plotted against the log of the concentration of the test compounds and the IC50 (relative antagonism) is calculated using the XLfit-4 software. […] A concentration-response curve of the probing agonist is determined on each plate in parallel.

T1 sequence (P21453 whole entry): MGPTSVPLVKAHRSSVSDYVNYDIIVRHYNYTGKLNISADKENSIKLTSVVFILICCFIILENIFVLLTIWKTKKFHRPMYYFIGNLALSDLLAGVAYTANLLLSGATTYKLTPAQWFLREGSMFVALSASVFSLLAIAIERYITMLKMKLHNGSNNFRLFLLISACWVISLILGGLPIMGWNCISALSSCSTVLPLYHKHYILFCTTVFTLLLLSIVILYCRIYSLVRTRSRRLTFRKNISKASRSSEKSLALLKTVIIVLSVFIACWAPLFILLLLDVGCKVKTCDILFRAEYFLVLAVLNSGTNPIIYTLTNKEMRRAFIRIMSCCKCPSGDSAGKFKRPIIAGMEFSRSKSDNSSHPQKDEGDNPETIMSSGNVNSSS

SMILES | IC50 [nM]
Cc1cc(C)cc(C(C)Nc2cccc(-c3cc(C)c(C(=O)N[C@@H](C)C(=O)O)c(C)c3)c2)c1 (stereo partly drawn) [Example 28, (S)-2-({3′-[1-(3,5-Dimethyl-phenyl)-ethylamino]-3,5-dimethyl-biphenyl-4-carbonyl}-amino)-propionic acid] | 3
Cc1cc(C(C)Nc2cccc(-c3cc(C)c(C(=O)N[C@@H](C)C(=O)O)c(C)c3)c2)cc(C)c1Cl (stereo partly drawn) [Example 29, (S)-2-({3′-[1-(4-Chloro-3,5-dimethyl-phenyl)-ethylamino]-3,5-dimethyl-biphenyl-4-carbonyl}-amino)-propionic acid] | 2
COc1ccc(C(C)Nc2cccc(-c3cc(C)c(C(=O)N[C@@H](C)C(=O)O)c(C)c3)c2)cc1C(F)(F)F (stereo partly drawn) [Example 33, (S)-2-({3′-[1-(4-Methoxy-3-trifluoromethyl-phenyl)-ethylamino]-3,5-dimethyl-biphenyl-4-carbonyl}-amino)-propionic acid] | 1
COc1c(F)cc(C(C)Nc2cccc(-c3cc(C)c(C(=O)N[C@@H](C)C(=O)O)c(C)c3)c2)cc1F (stereo partly drawn) [Example 34, (S)-2-({3′-[1-(3,5-Difluoro-4-methoxy-phenyl)-ethylamino]-3,5-dimethyl-biphenyl-4-carbonyl}-amino)-propionic acid] | 3
COc1ccc(C(C)Nc2cccc(-c3cc(C)c(C(=O)N[C@@H](C)C(=O)O)c(C)c3)c2)c(F)c1 (stereo partly drawn) [Example 35, (S)-2-({3′-[1-(2-Fluoro-4-methoxy-phenyl)-ethylamino]-3,5-dimethyl-biphenyl-4-carbonyl}-amino)-propionic acid] | 8
Cc1cc([C@@H](C)Nc2cccc(-c3ccc(C(=O)N[C@@H](C)C(=O)O)c(C)c3)c2)ccc1Cl [Example 40, (S)-2-({3′-[(R)-1-(4-Chloro-3-methyl-phenyl)-ethylamino]-3-methyl-biphenyl-4-carbonyl}-amino)-propionic acid] | 2
CCc1cc(-c2cccc(NC(C)c3cc(C)c(Cl)c(C)c3)c2)ccc1C(=O)N(C)[C@@H](C)C(=O)O (stereo partly drawn) [Example 45, (S)-2-({3′-[1-(4-Chloro-3,5-dimethyl-phenyl)-ethylamino]-3-ethyl-biphenyl-4-carbonyl}-methyl-amino)-propionic acid] | 5
Cc1cc(C(C)Nc2cccc(-c3ccc(C(=O)N(C)[C@@H](C)C(=O)O)c(Cl)c3)c2)ccc1Cl (stereo partly drawn) [Example 47, (S)-2-({3-Chloro-3′-[1-(4-chloro-3-methyl-phenyl)-ethylamino]-biphenyl-4-carbonyl}-methyl-amino)-propionic acid] | 2
Cc1cc(C(C)Nc2cccc(-c3ccc(C(=O)N(C)[C@@H](C)C(=O)O)c(F)c3)c2)ccc1Cl (stereo partly drawn) [Example 49, (S)-2-({3′-[1-(4-Chloro-3-methyl-phenyl)-ethylamino]-3-fluoro-biphenyl-4-carbonyl}-methyl-amino)-propionic acid] | 3
Cc1cc(C(C)Nc2cccc(-c3ccc(C(=O)N(C)[C@@H](C)C(=O)O)c(F)c3)c2)cc(C)c1Cl (stereo partly drawn) [Example 55, (S)-2-({3′-[1-(4-Chloro-3,5-dimethyl-phenyl)-ethylamino]-3-fluoro-biphenyl-4-carbonyl}-methyl-amino)-propionic acid] | 9
Cc1cc(C(C)Nc2cccc(-c3cc(F)c(C(=O)N[C@@H](C)C(=O)O)c(F)c3)c2)cc(C)c1Cl (stereo partly drawn) [Example 56, (S)-2-({3′-[1-(4-Chloro-3,5-dimethyl-phenyl)-ethylamino]-3,5-difluoro-biphenyl-4-carbonyl}-amino)-propionic acid] | 1
CCC(Nc1cccc(-c2ccc(C(=O)N(C)[C@@H](C)C(=O)O)c(C)c2)c1)c1ccc(Cl)c(C)c1 (stereo partly drawn) [Example 58, (S)-2-({3′-[1-(4-Chloro-3-methyl-phenyl)-propylamino]-3-methyl-biphenyl-4-carbonyl}-methyl-amino)-propionic acid] | 2
Cc1cc(-c2cccc(NC(C)c3cc(C)c(Cl)c(C)c3)c2)ccc1C(=O)N(C)[C@@H](C)C(=O)O (stereo partly drawn) [Example 59, (S)-2-({3′-[1-(4-Chloro-3,5-dimethyl-phenyl)-ethylamino]-3-methyl-biphenyl-4-carbonyl}-methyl-amino)-propionic acid] | 3
Cc1cc(C(C)Nc2cccc(-c3ccc(C(=O)N[C@@H](C)C(=O)O)c(C(F)(F)F)c3)c2)ccc1Cl (stereo partly drawn) [Example 62, (S)-2-({3′-[1-(4-Chloro-3-methyl-phenyl)-ethylamino]-3-trifluoromethyl-biphenyl-4-carbonyl}-amino)-propionic acid] | 1

Continued by falling IC50, values first:

IC50 [nM] | SMILES
6 | Cc1cc(C(C)Nc2cccc(-c3cc(F)c(C(=O)N(C)[C@@H](C)C(=O)O)c(F)c3)c2)ccc1Cl (stereo partly drawn) [Example 51, (S)-2-({3′-[1-(4-Chloro-3-methyl-phenyl)-ethylamino]-3,5-difluoro-biphenyl-4-carbonyl}-methyl-amino)-propionic acid]
6 | Cc1cc(C(C)Nc2cccc(-c3cc(F)c(C(=O)N(C)[C@@H](C)C(=O)O)c(F)c3)c2)cc(C)c1Cl (stereo partly drawn) [Example 57, (S)-2-({3′-[1-(4-Chloro-3,5-dimethyl-phenyl)-ethylamino]-3,5-difluoro-biphenyl-4-carbonyl}-methyl-amino)-propionic acid]
5 | Cc1cc(C(C)Nc2cccc(-c3ccc(C(=O)N(C)[C@@H](C)C(=O)O)c(Cl)c3)c2)cc(C)c1Cl (stereo partly drawn) [Example 53, (S)-2-({3-Chloro-3′-[1-(4-chloro-3,5-dimethyl-phenyl)-ethylamino]-biphenyl-4-carbonyl}-methyl-amino)-propionic acid]
3 | CCc1cc(-c2cccc(NC(C)c3ccc(Cl)c(C)c3)c2)ccc1C(=O)N[C@@H](C)C(=O)O (stereo partly drawn) [Example 42, (S)-2-({3′-[1-(4-Chloro-3-methyl-phenyl)-ethylamino]-3-ethyl-biphenyl-4-carbonyl}-amino)-propionic acid]
3 | CCc1cc(-c2cccc(NC(C)c3ccc(Cl)c(C)c3)c2)ccc1C(=O)N(C)[C@@H](C)C(=O)O (stereo partly drawn) [Example 43, (S)-2-({3′-[1-(4-Chloro-3-methyl-phenyl)-ethylamino]-3-ethyl-biphenyl-4-carbonyl}-methyl-amino)-propionic acid]
3 | Cc1cc(C(C)Nc2cccc(-c3cc(F)c(C(=O)N[C@@H](C)C(=O)O)c(F)c3)c2)ccc1Cl (stereo partly drawn) [Example 50, (S)-2-({3′-[1-(4-Chloro-3-methyl-phenyl)-ethylamino]-3,5-difluoro-biphenyl-4-carbonyl}-amino)-propionic acid]
2 | COc1ccc(C(C)Nc2cccc(-c3cc(C)c(C(=O)N[C@@H](C)C(=O)O)c(C)c3)c2)cc1C (stereo partly drawn) [Example 30, (S)-2-({3′-[1-(4-Methoxy-3-methyl-phenyl)-ethylamino]-3,5-dimethyl-biphenyl-4-carbonyl}-amino)-propionic acid]
2 | COc1c(F)cc(C(C)Nc2cccc(-c3cc(C)c(C(=O)N[C@@H](C)C(=O)O)c(C)c3)c2)cc1Cl (stereo partly drawn) [Example 36, (S)-2-({3′-[(3-Chloro-5-fluoro-4-methoxy-phenyl)-ethylamino]-3,5-dimethyl-biphenyl-4-carbonyl}-amino)-propionic acid]
2 | COc1c(C)cc(C(C)Nc2cccc(-c3cc(C)c(C(=O)N[C@@H](C)C(=O)O)c(C)c3)c2)cc1C (stereo partly drawn) [Example 37, (S)-2-({3′-[1-(4-Methoxy-3,5-dimethyl-phenyl)-ethylamino]-3,5-dimethyl-biphenyl-4-carbonyl}-amino)-propionic acid]
2 | Cc1cc(C(C)Nc2cccc(-c3ccc(C(=O)N[C@@H](C)C(=O)O)c(Cl)c3)c2)ccc1Cl (stereo partly drawn) [Example 46, (S)-2-({3-Chloro-3′-[1-(4-chloro-3-methyl-phenyl)-ethylamino]-biphenyl-4-carbonyl}-amino)-propionic acid]
2 | Cc1cc(C(C)Nc2cccc(-c3ccc(C(=O)N(C)[C@@H](C)C(=O)O)c(C(F)(F)F)c3)c2)ccc1Cl (stereo partly drawn) [Example 63, (S)-2-({3′-[1-(4-Chloro-3-methyl-phenyl)-ethylamino]-3-trifluoromethyl-biphenyl-4-carbonyl}-methyl-amino)-propionic acid]
1 | Cc1cc(C(C)Nc2cccc(-c3ccc(C(=O)N[C@@H](C)C(=O)O)c(Cl)c3)c2)cc(C)c1Cl (stereo partly drawn) [Example 52, (S)-2-({3-Chloro-3′-[1-(4-chloro-3,5-dimethyl-phenyl)-ethylamino]-biphenyl-4-carbonyl}-amino)-propionic acid]
1 | CCC(Nc1cccc(-c2ccc(C(=O)N[C@@H](C)C(=O)O)c(Cl)c2)c1)c1ccc(Cl)c(C)c1 (stereo partly drawn) [Example 60, (S)-2-({3-Chloro-3′-[1-(4-chloro-3-methyl-phenyl)-propylamino]-biphenyl-4-carbonyl}-amino)-propionic acid]
1 | CCC(Nc1cccc(-c2ccc(C(=O)N(C)[C@@H](C)C(=O)O)c(Cl)c2)c1)c1ccc(Cl)c(C)c1 (stereo partly drawn) [Example 61, (S)-2-({3-Chloro-3′-[1-(4-chloro-3-methyl-phenyl)-propylamino]-biphenyl-4-carbonyl}-methyl-amino)-propionic acid]
1 | Cc1cc(C(C)Nc2cccc(-c3ccc(C(=O)N[C@@H](C)C(=O)O)c(C(F)(F)F)c3)c2)cc(C)c1Cl (stereo partly drawn) [Example 64, (S)-2-({3′-[1-(4-Chloro-3,5-dimethyl-phenyl)-ethylamino]-3-trifluoromethyl-biphenyl-4-carbonyl}-amino)-propionic acid]
